Test [1] in a line: Mycobacterium tuberculosis h37rv growth inhibition in absence of glycerol, confirmatory dose response (AID 588437). The following applies: Mycobacterium tuberculosis H37Rv growth inhibition, no glycerol.
In test [2] the test system is Mycobacterium tuberculosis H37Rv growth inhibition, no glycerol. Described as above. The following applies: for IC50: measured here: IC50 growth inhibition replicates.

Where “and” joins values, the source holds several entries; their conditions need not be identical. Identical values can stand only once. Inconclusive results are not listed. Calls of active or inactive are those of the source. How the calls were made is not given here.

Take `CCOc1ccc(NC(=O)c2ccc(CNc3c(N4CCCC4)c(=O)c3=O)cc2)cc1`: the outcome in test [1] was inactive. For the molecule `CCOC(=O)CSc1ncnc2c1cnn2-c1ccc(C)cc1C`, in test [2], the 90% effect concentration (IC90) was 7.19 µM and the half-maximal inhibitory concentration (IC50) amounted to 5 µM. For `O=C(NCCc1ccc(Cl)cc1)C1CCC(CNc2c(N3CCCCC3)c(=O)c2=O)CC1` (centres undefined), in test [2], the 50% inhibitory concentration (IC50) worked out at 22.4 µM. Take `Cc1cccc(N2CCN(C(=O)c3ccc(CNc4c(N5CCC(C)CC5)c(=O)c4=O)cc3)CC2)c1C`: the outcome in test [1] was inactive. Regarding `COc1ccc(N2CCN(C(=O)c3ccc(CNc4c(N5CCOCC5)c(=O)c4=O)cc3)CC2)cc1`, the IC50 in test [2] was 21.7 µM and 18.5 µM. For the molecule `O=C(c1ccc(CNc2c(N3CCOCC3)c(=O)c2=O)cc1)N1CC=C(c2ccccc2)CC1`, in test [2], the IC90 is 15.4 µM and the IC50 was 4.83 µM. Consider `O=C(C1CCC(CNc2c(N3CCCCC3)c(=O)c2=O)CC1)N1CCCCC1` (centres undefined), for which the IC50 in test [2] is 59.6 µM.

In turn, `O=C(c1ccc(CNc2c(N3CCCC3)c(=O)c2=O)cc1)N1CCc2ccccc2C1` gave an IC50 in test [2] of 13.4 µM. On the same count and under the same terms, for `O=C(c1ccc(CNc2c(N3CCCC3)c(=O)c2=O)cc1)N1CC=C(c2ccccc2)CC1` the value was 12.5 µM and 8.13 µM. On to `COC(=O)CSc1ncnc2c1cnn2-c1ccc(C)cc1C`, for which, in test [2], the IC90 was 6.65 µM and the concentration for half-maximal inhibition (IC50) came out at 5.41 µM. With `CCC(C)NC(=O)CSc1nc2ccccc2c(=O)[nH]1` (centres undefined), in test [2], the 90% effect concentration (IC90) is 4.01 µM and the IC50 turned out to be 2.98 µM. `CCOC(=O)CSc1ncnc2c1cnn2-c1ccccc1`: in test [2], the IC90 was 47.7 µM and the IC50 turned out to be 30.2 µM.

Regarding `CC1CCCN(C(=O)C2CCC(CNc3c(N4CCCCC4)c(=O)c3=O)CC2)C1` (centres undefined), the IC50 in test [2] stood at 64.3 µM. `CC1CC(C)CN(C(=O)C2CCC(CNc3c(N4CCCCC4)c(=O)c3=O)CC2)C1` (centres undefined): in test [2], the 50% inhibitory concentration (IC50) was 26.9 µM and 35.5 µM. In the case of `CCOC(=O)N1CCC(Nc2c(Nc3cccc(CC)c3)c(=O)c2=O)CC1`, in test [2], the IC90 was 85.3 µM and the half-maximal inhibitory concentration (IC50) came to 65.1 µM. Consider `CC1CCCN(C(=O)c2ccc(CNc3c(N4CCCCC4)c(=O)c3=O)cc2)C1` (centres undefined), for which, in test [2], the IC50 was found to be 14.1 µM. On the same count and under the same terms, for `CC(=O)c1ccc(NC(=O)c2ccc(CNc3c(N4CCOCC4)c(=O)c3=O)cc2)cc1` the value was more than 98.8 µM. In the case of `Cc1cccc(N2CCN(C(=O)c3ccc(CNc4c(N5CCC(C)CC5)c(=O)c4=O)cc3)CC2C)c1` (centres undefined), in test [2], the IC90 was 51.8 µM and the IC50 was found to be 40.9 µM. In the case of `O=C(NCCc1ccc(Cl)cc1)c1ccc(CNc2c(N3CCOCC3)c(=O)c2=O)cc1`, in test [2], the 50% inhibitory concentration (IC50) is 11 µM and 11.2 µM.

In test [2], `CC1CC(C)CN(C(=O)c2ccc(CNc3c(N4CCCC4)c(=O)c3=O)cc2)C1` (centres undefined) displayed a half-inhibitory concentration (IC50) of 22.8 µM. This counts as double-digit micromolar.

In test [2], `CC(C)OC(=O)CSc1ncnc2c1cnn2-c1ccccc1` returned a concentration for half-maximal inhibition (IC50) of 29.5 µM. On the same count and under the same terms, for `CC1CCN(C(=O)c2ccc(CNc3c(N4CCCC4)c(=O)c3=O)cc2)CC1` the value was 20.3 µM.

As usually defined, the IC90 is the point of the concentration-response curve where the effect stands at 90%. The IC50 is the concentration at which inhibition is half-maximal. High values mean weaker potency in that assay, low ones greater potency in that assay.

For the origin of these results see PubChem BioAssay AID588437 (Southern Research Specialized Biocontainment Screening …, 2011).
